Laboratory results from patent publication US20030186939A1, “Omega-cycloalkyl-prostaglandin E2 derivatives” (priority 1997, published 2003).
pKi: −log10 of the molar value.

Columns and labels:
Settings in all cases: competition of 2.5 nM 3H-PGE2 binding, CHO cell membrane fraction; more polar compounds
mouse EP1 = target: T1, mouse EP1 (Mus musculus, UniProt P35375); assay: Binding assay using expression cell of prostanoide receptor subtype (EP1)
T1 construct: expressed in transfected cells; host or cells: CHO cells (membrane fraction)
T1 sequence (P35375 1-405): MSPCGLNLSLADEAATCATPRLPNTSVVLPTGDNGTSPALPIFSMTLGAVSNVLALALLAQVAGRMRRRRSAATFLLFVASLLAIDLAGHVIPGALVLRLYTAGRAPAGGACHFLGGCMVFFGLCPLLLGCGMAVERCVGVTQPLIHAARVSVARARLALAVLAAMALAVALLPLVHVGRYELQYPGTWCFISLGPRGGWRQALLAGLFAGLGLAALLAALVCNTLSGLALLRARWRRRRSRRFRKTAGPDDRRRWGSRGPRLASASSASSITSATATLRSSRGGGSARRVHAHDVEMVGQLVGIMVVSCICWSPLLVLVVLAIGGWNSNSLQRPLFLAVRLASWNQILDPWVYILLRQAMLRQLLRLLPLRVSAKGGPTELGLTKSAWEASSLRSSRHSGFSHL
Method: (§1) The preparation of membrane fraction was carried out according to the method of Sugimoto et. al. [J. Biol. Chem. 267, 6463-6466 (1992)], using expression CHO cell of the prostanoide receptor subtype (mouse EP1, EP2, EP3α, EP4).
(§2) The standard assay mixture contained membrane fraction (0.5 mg/ml), and [^3H]-PGE2 in a final volume of 200 μl was incubated for 1 hour at room temperature. The reaction was terminated by the addition of 3 ml of ice-cold buffer. The mixture was rapidly filtered through a GF/B glass filter. The radioactivity associated with the filter was measured by liquid scintillation counting.
(§3) Kd and Bmax values were determined from Scatchard plots [Ann. N.Y. Acad. Sci., 51, 660 (1949)]. Non-specific binding was calculated as the bound in the presence of an excess (2.5 μM) of unlabeled PGE2. In the experiment for competition of specific ^3H-PGE2 binding by the compounds of the present invention, 2.5 nM of ^3H-PGE2 and various concentrations of compounds of the present invention were added. The following buffer was used in all reactions.
(§4) Buffer: 10 mM potassium phosphate (pH 6.0), 1 mM EDTA, 10 mM MgCl2, 0.1 M NaCl
(§5) In the example compounds, all of values were shown the more polar compounds.
(§6) The dissociation constant (Ki) of each compound was calculated by the following equation.

mouse EP2 = target: T2, mouse EP2 (Mus musculus, UniProt Q62053); assay: Binding assay using expression cell of prostanoide receptor subtype (EP2)
T2 construct: expressed in transfected cells; host or cells: CHO cells (membrane fraction)
T2 sequence (Q62053 whole entry): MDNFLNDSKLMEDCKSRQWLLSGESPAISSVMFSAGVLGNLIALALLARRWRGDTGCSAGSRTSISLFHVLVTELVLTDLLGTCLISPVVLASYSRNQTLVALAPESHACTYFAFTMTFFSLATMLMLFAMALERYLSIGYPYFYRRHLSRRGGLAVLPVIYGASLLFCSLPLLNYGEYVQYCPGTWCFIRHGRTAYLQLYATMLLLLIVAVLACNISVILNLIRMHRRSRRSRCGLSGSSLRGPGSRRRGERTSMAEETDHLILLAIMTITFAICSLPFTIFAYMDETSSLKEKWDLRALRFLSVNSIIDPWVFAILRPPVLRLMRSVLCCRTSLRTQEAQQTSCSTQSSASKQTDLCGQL
Method: as §2
(§7) Kd and Bmax values were determined from Scatchard plots [Ann. […] The following buffer was used in all reactions.
as §4, §6

mouse EP3α = target: T3, mouse EP3α (Mus musculus, UniProt P30557); assay: Binding assay using expression cell of prostanoide receptor subtype (EP3α)
T3 construct: expressed in transfected cells; host or cells: CHO cells (membrane fraction)
T3 sequence (P30557 1-365): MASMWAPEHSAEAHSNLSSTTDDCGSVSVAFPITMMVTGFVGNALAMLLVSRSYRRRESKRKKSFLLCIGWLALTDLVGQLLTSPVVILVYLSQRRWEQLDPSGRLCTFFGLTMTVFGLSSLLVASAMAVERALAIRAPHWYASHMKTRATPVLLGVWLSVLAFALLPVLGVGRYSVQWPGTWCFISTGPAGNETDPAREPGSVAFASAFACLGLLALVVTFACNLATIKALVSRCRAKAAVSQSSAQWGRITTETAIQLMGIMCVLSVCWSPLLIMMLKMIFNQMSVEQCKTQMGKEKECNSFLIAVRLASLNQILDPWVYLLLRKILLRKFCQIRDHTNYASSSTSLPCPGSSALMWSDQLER
Method: as §1, §2, §3, §4, §5, §6

mouse EP4 = target: T4, mouse EP4 (Mus musculus, UniProt P32240); assay: Binding assay using expression cell of prostanoide receptor subtype (EP4)
T4 construct: expressed in transfected cells; host or cells: CHO cells (membrane fraction)
T4 sequence (P32240 whole entry): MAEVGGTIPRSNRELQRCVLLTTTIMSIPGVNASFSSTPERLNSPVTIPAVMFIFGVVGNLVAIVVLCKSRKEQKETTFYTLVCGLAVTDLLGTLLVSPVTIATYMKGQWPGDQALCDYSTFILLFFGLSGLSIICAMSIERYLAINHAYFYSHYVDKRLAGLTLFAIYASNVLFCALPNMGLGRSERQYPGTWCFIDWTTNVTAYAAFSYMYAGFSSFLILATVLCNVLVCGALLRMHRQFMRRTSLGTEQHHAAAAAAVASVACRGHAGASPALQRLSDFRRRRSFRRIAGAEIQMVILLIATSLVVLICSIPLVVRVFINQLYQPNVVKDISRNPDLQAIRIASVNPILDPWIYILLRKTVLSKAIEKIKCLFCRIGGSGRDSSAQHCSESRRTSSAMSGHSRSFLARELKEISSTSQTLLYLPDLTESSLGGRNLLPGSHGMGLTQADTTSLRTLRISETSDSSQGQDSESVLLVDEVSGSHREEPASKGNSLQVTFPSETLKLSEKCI
Method: as §2, §7, §4, §6

pKi (mouse EP1) | pKi (mouse EP2) | pKi (mouse EP3α) | pKi (mouse EP4) | Structure (SMILES)
< 5.00 | 7.49 | < 5.00 | < 5.00 | C=CCC1(C(O)C/C=C/[C@H]2[C@H](O)CC(=O)[C@@H]2C/C=C\CCCC(=O)O)CCC1 (stereo partly drawn) [Example 4(5), (5Z, 11α, 13E)-11,16-dihydroxy-9-oxo-17,17-propanoprosta-5, 13-19-trienoic acid]
< 5.00 | 7.52 | < 5.00 | < 5.00 | CCC1(C(O)C/C=C/[C@H]2[C@H](O)CC(=O)[C@@H]2C/C=C\CCCC(=O)O)CCC1 (stereo partly drawn) [Example 4(10), (5Z, 11α, 13E)-11,16-dihydroxy-9-oxo-17,17-propano-20-norprosta-5,13-dienoic acid]
< 5.00 | 7.44 | < 5.00 | < 5.00 | C=CCCC1(C(O)C/C=C/[C@H]2[C@H](O)CC(=O)[C@@H]2C/C=C\CCCC(=O)O)CCC1 (stereo partly drawn) [Example 6(1), (5Z, 11α, 13E)-17,17-propano-20,20-methylene-11,16-dihydroxy-9-oxoprosta-5,13-dienoic acid]
< 5.00 | 7.12 | < 5.00 | < 5.00 | C=CC1(C(O)C/C=C/[C@H]2[C@H](O)CC(=O)[C@@H]2C/C=C\CCCC(=O)O)CCC1 (stereo partly drawn) [Example 6(5), (5Z, 11α, 13E)-17,17-propano-11,16-dihydroxy-9-oxo-20-norprosta-5,13,18-trienoic acid]
< 5.00 | 7.02 | < 5.00 | < 5.00 | C=CCC1(C(O)C/C=C/[C@@H]2[C@@H](C/C=C\CCCC(=O)OC)[C@H](Cl)C[C@H]2O)CCC1 (stereo partly drawn) [Example 16(1), (5Z, 9β, 11α, 13E)-17, 17-propano-11, 16-dihydroxy-9-chloroprosta-5, 13, 19-trienoic acid•methylester]
5.96 | 9.05 | 5.57 | 6.40 | O=C(O)CCC/C=C\C[C@@H]1[C@@H](/C=C/CC(O)C2(CC3CC3)CCC2)[C@H](O)C[C@H]1Cl (stereo partly drawn) [Example 17(2), (5Z, 9β, 11α, 13E)-17, 17-propano-19, 20-methano-11, 16-dihydroxy-9-chloroprosta-5, 13-dienoic acid]
< 5.00 | 7.04 | < 5.00 | < 5.00 | CCCC1(C(O)C/C=C/[C@H]2[C@H](O)CC(=O)[C@@H]2C/C=C\CCCC(=O)O)CCC1 (stereo partly drawn) [compound 4]
< 5.00 | 7.47 | < 5.00 | < 5.00 | CCCC1(C(O)C/C=C/[C@H]2[C@H](OC)CC(=O)[C@@H]2C/C=C\CCCC(=O)O)CCC1 (stereo partly drawn) [compound 10]
< 5.00 | 6.43 | < 5.00 | < 5.00 | C=C1C[C@@H](O)[C@H](/C=C/CC(O)C2(CCC)CCC2)[C@H]1C/C=C\CCCC(=O)O (stereo partly drawn) [compound 12]
